{"source": "patent US8952024B2", "about": "“Herbicidal pyrimidone derivatives” (E I du Pont de Nemours and Company, priority 2009, dated 2015)", "assay_type_in_all_cases": "in vivo", "key": {"[1]": {"tested_on": "morningglory (Ipomoea spp.)", "assay": "Test A pre-/postemergence plant response", "in_short": "(§1)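 Injury was scored visually after roughly ten days against untreated controls, 0 = no effect, 100 = complete control. Test chemicals in a surfactant-containing non-phytotoxic solvent were sprayed either onto soil preemergence or onto one- to two-leaf, 2–10 cm plants postemergence.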"}, "[2]": {"tested_on": "velvetleaf (Abutilon theophrasti)", "assay": "Test A pre-/postemergence plant response", "in_short": "as §1"}, "[3]": {"tested_on": "corn (Zea mays)", "assay": "Test A pre-/postemergence plant response", "in_short": "as §1"}, "[4]": {"tested_on": "giant foxtail (Setaria faberii)", "assay": "Test A pre-/postemergence plant response", "in_short": "as §1"}, "[5]": {"tested_on": "wheat (Triticum aestivum)", "assay": "Test A pre-/postemergence plant response", "in_short": "as §1"}, "[6]": {"tested_on": "pigweed (Amaranthus retroflexus)", "assay": "Test A pre-/postemergence plant response", "in_short": "as §1"}, "[7]": {"tested_on": "large crabgrass (Digitaria sanguinalis)", "assay": "Test A pre-/postemergence plant response", "in_short": "as §1"}, "[8]": {"tested_on": "barnyardgrass (Echinochloa crus-galli)", "assay": "Test A pre-/postemergence plant response", "in_short": "as §1"}, "[9]": {"tested_on": "rice (Oryza sativa)", "assay": "Test B flooded paddy test", "details": "for Plant response rating, Rice: Flood (flooded paddy test), 13 to 15 days", "in_short": "(§2)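 Flooded-pot test: water raised to 3 cm above soil when treating, compound put in the water, level unchanged thereafter. Plants were at 2 leaves. Readout after 13 to 15 days, visual, relative to controls; 0 signifies no effect and 100 complete control.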"}, "[10]": {"tested_on": "umbrella sedge (Cyperus difformis)", "assay": "Test B flooded paddy test", "details": "for Plant response rating, Sedge, Umbrella: Flood (flooded paddy test), 13 to 15 days", "in_short": "as §2"}, "[11]": {"tested_on": "barnyardgrass (Echinochloa crus-galli)", "assay": "Test B flooded paddy test", "details": "for Plant response rating, Barnyardgrass: Flood (flooded paddy test), 13 to 15 days", "in_short": "as §2"}, "[12]": {"tested_on": "ducksalad (Heteranthera limosa)", "assay": "Test B flooded paddy test", "details": "for Plant response rating, Ducksalad: Flood (flooded paddy test), 13 to 15 days", "in_short": "as §2"}, "[13]": {"details": "Postemergence, 125 g ai/ha, visual injury, 0 to 100 scale (0 no effect, 100 complete control), approx. ten days"}, "[14]": {"details": "Postemergence, 500 g ai/ha, visual injury, 0 to 100 scale (0 no effect, 100 complete control), approx. ten days"}, "[15]": {"details": "Preemergence, 125 g ai/ha, 0 to 100 scale where 0 is no effect and 100 is complete control, approximately ten days"}, "[16]": {"details": "Preemergence, 500 g ai/ha, 0 to 100 scale, 0 = no effect, 100 = complete control"}, "[17]": {"details": "Postemergence, 125 g ai/ha, 0 to 100 scale where 0 is no effect and 100 is complete control"}, "[18]": {"details": "250 g ai/ha, flooded paddy test, visual rating on 0 to 100 scale (0 no effect, 100 complete control) after 13 to 15 days"}, "[19]": {"details": "62 g ai/ha, scale of 0 to 100 where 0 is no effect and 100 is complete control"}, "[20]": {"details": "125 g ai/ha, scale 0 to 100, 0 is no effect, 100 is complete control"}, "[21]": {"details": "Flood, 31 g ai/ha, scale 0 to 100 (0 no effect, 100 complete control)"}}, "data": [{"compound": "O=C(C1=C(O)C2CCC(C2)C1=O)c1cnc(-c2ccccc2)n(C2CCOCC2)c1=O", "note": "(stereo not drawn) [Compound 249]", "values": [{"measurement": "Plant response rating, Morningglory", "setting": "[1]; [13]", "result": 100}, {"measurement": "Morningglory plant response rating", "setting": "[1]; [14]", "result": 100}, {"measurement": "Plant response rating, Morningglory", "setting": "[1]; [15]", "result": 30}, {"measurement": "Plant response rating, Morningglory", "setting": "[1]; [16]", "result": 70}, {"measurement": "Plant response rating, Velvetleaf", "setting": "[2]; [13]", "result": 100}, {"measurement": "Velvetleaf plant response rating", "setting": "[2]; [14]", "result": 100}, {"measurement": "Plant response rating, Velvetleaf", "setting": "[2]; [15]", "result": 60}, {"measurement": "Plant response rating, Velvetleaf", "setting": "[2]; [16]", "result": 90}, {"measurement": "Plant response rating, Corn", "setting": "[3]; [17]", "result": 0}, {"measurement": "Corn plant response rating", "setting": "[3]; [14]", "result": 20}, {"measurement": "Plant response rating, Corn", "setting": "[3]; [15]", "result": 0}, {"measurement": "Plant response rating, Corn", "setting": "[3]; [16]", "result": 0}, {"measurement": "Plant response rating, Foxtail, Giant", "setting": "[4]; [13]", "result": 80}, {"measurement": "Foxtail, Giant plant response rating", "setting": "[4]; [14]", "result": 90}, {"measurement": "Plant response rating, Foxtail, Giant", "setting": "[4]; [15]", "result": 20}, {"measurement": "Plant response rating, Foxtail, Giant", "setting": "[4]; [16]", "result": 40}, {"measurement": "Plant response rating, Wheat", "setting": "[5]; [13]", "result": 10}, {"measurement": "Wheat plant response rating", "setting": "[5]; [14]", "result": 50}, {"measurement": "Plant response rating, Wheat", "setting": "[5]; [15]", "result": 0}, {"measurement": "Plant response rating, Wheat", "setting": "[5]; [16]", "result": 0}, {"measurement": "Plant response rating, Pigweed", "setting": "[6]; [13]", "result": 90}, {"measurement": "Pigweed plant response rating", "setting": "[6]; [14]", "result": 100}, {"measurement": "Plant response rating, Pigweed", "setting": "[6]; [15]", "result": 80}, {"measurement": "Plant response rating, Pigweed", "setting": "[6]; [16]", "result": 100}, {"measurement": "Plant response rating, Crabgrass, Large", "setting": "[7]; [17]", "result": 90}, {"measurement": "Crabgrass, Large plant response rating", "setting": "[7]; [14]", "result": 100}, {"measurement": "Plant response rating, Crabgrass, Large", "setting": "[7]; [15]", "result": 40}, {"measurement": "Plant response rating, Crabgrass, Large", "setting": "[7]; [16]", "result": 80}, {"measurement": "Plant response rating, Barnyardgrass", "setting": "[8]; [17]", "result": 90}, {"measurement": "Barnyardgrass plant response rating", "setting": "[8]; [14]", "result": 100}, {"measurement": "Plant response rating, Barnyardgrass", "setting": "[8]; [15]", "result": 0}, {"measurement": "Plant response rating, Barnyardgrass", "setting": "[8]; [16]", "result": 40}, {"measurement": "Plant response rating, Flood, Rice", "setting": "[9]; [18]", "result": 15}, {"measurement": "Plant response rating, Rice", "setting": "[9]; [19]", "result": 0}, {"measurement": "Plant response rating, Rice", "setting": "[9]; [20]", "result": 0}, {"measurement": "Rice plant response rating", "setting": "[9]; [21]", "result": 0}, {"measurement": "Plant response rating, Flood, Sedge, Umbrella", "setting": "[10]; [18]", "result": 90}, {"measurement": "Plant response rating, Sedge, Umbrella", "setting": "[10]; [19]", "result": 60}, {"measurement": "Plant response rating, Sedge, Umbrella", "setting": "[10]; [20]", "result": 85}, {"measurement": "Sedge, Umbrella plant response rating", "setting": "[10]; [21]", "result": 0}, {"measurement": "Plant response rating, Flood, Barnyardgrass", "setting": "[11]; [18]", "result": 0}, {"measurement": "Plant response rating, Barnyardgrass", "setting": "[11]; [19]", "result": 0}, {"measurement": "Plant response rating, Barnyardgrass", "setting": "[11]; [20]", "result": 0}, {"measurement": "Barnyardgrass plant response rating", "setting": "[11]; [21]", "result": 0}, {"measurement": "Plant response rating, Flood, Ducksalad", "setting": "[12]; [18]", "result": 90}, {"measurement": "Plant response rating, Ducksalad", "setting": "[12]; [19]", "result": 65}, {"measurement": "Plant response rating, Ducksalad", "setting": "[12]; [20]", "result": 80}, {"measurement": "Ducksalad plant response rating", "setting": "[12]; [21]", "result": 0}]}]}
